According to patent publication US20230085362A1, “PYRIMIDINE COMPOUNDS AND USE THEREOF” (National Health Research Institutes, priority 2021, published 2023):
Read-outs that look alike come from different tables or passages of the source.

Experiments:
Primary DRG cells [1] = assay: Neurite outgrowth assay (group B), oxaliplatin-induced neurotoxicity; format: cell-based, C57BL/6 J mice
Experimental: (§1) Cell culture. For primary culture, dorsal root ganglia (“DRG”) were removed from 7-weeks-old C57BL/6 J mice and digested with 0.1% collagenase (Sigma-Aldrich, St. Louis, MO) for 1 hour, followed by 0.25% trypsin treatment for 25 minutes. The dissociated neuron cultures were plated at a density of 2.5×10^4 cells per well in a 96 well optics plates (CLS3614; Sigma-Aldrich) precoated with 1 mg/mL poly-D-lysine (A-003-M; Sigma-Aldrich) for 3 hours. Primary DRG cells were grown in DMEM-F12 (11320033; Gibco®, ThermoFisher Scientific, Waltham, MA) supplemented with 10% fetal bovine serum (FBS, 26140079; Gibco®, ThermoFisher). These cells were maintained at 37° C. in an environment containing 5% CO2.
(§2) Neurite outgrowth assay (group A). Primary DRG cells were incubated with one of the Example 2 compounds at 1 µM for 24 hours, and then treated with 0.05 µM paclitaxel for another 24 hours. After the paclitaxel treatment, the primary DRG cells were washed by PBS and then fixed with 4% paraformaldehyde (PFA, P6148; Sigma-Aldrich) for 15 minutes. The DRG cells thus fixed were permeabilized by 0.05% Triton X-100 in PBS for 20 minutes and blocked with 3% bovine serum albumin (BSA; Sigma-Aldrich, USA) at room temperature for 1 hour. Subsequently, DRG cells were stained with rabbit anti-β III tubulin (1:600; Cell Signaling, USA) and mouse anti-NeuN monoclonal antibody (1:400; Millipore, USA) overnight at 4° C. The samples were then washed by PBS and reacted with secondary antibodies (Alexa-488 and Alexa-594 1:600; Invitrogen, CA) at room temperature for 1 hour. For image acquisition and analysis of DRG neurite outgrowth, images of stained cells were automatically acquired using 10X objective by Image Xpress Micro wide field fluorescent microscope (Molecular Devices, USA). A control was obtained following the same procedure except that the DRG cells were not treated with a compound or paclitaxel. Neurite outgrowth was measured as a percentage of outgrowth as compared to the control.
Neurite outgrowth assay (group B). Primary DRG cells were incubated with compounds 17, 47, 97, 98, 101, 104 at 1 µM for 24 hours, and then treated with 100 µM oxaliplatin for another 48 hours. The treatment was obtained following the same procedure as group A except that the DRG cells were treated with a oxaliplatin. Neurite outgrowth was measured as a percentage of outgrowth as compared to the control.

Primary DRG cells [2] = assay: Neurite outgrowth assay (group A), paclitaxel-induced neurotoxicity; format: cell-based, C57BL/6 J mice; details: for neuroprotection against paclitaxel-induced neurotoxicity: 1 µM compound; for activity at 1 µM: Mus musculus, read-out: Neurite outgrowth (%); for Neurite outgrowth (%) A-B (extent of protection): difference between compound 1 µM + paclitaxel 0.05 µM and paclitaxel 0.05 µM alone
Experimental: Compounds of this invention were evaluated using the neurite outgrowth assay as described in Chen et al., Scientific Reports, 7, 45366, DOI: 10.1038/srep45366 (2017).
as §1, §2
The difference between A and B indicates an extent of protection provided by the compound.

[3] = DRG cells, 1 µM compound 24 h then 0.05 µM paclitaxel 24 h, % of untreated control

Compound | neuroprotection against paclitaxel-induced neurotoxicity (Primary DRG cells [2]; 0.05 µM paclitaxel) | activity at 1 µM (Primary DRG cells [2]; [3]) [%] | Neurite outgrowth (%) A-B (extent of protection) (Primary DRG cells [2]) [%] | also measured
O=C1[O][Pt]2([NH][C@@H]3CCCC[C@H]3[NH]2)[O]C1=O [oxaliplatin, reference compound] | – | – | – | neurotoxicity to DRG neurite outgrowth (Primary DRG cells [1]; 100 µM oxaliplatin 48 h): inhibiting neurite outgrowth; inhibition of DRG neurite outgrowth (Primary DRG cells [1]; 100 µM oxaliplatin, across experiments of Table 2): 60%-71; Neurite outgrowth (%) (Primary DRG cells [1]; DRG cells treated with 100 µM oxaliplatin only, % of untreated control, comparator of the compound in the same table row): 29%
CC(C)(O)CCn1cc(CNc2nc(NC3CCN(CCP(=O)(O)O)CC3)cc(N3CCOCC3)n2)nn1 [Compound 60] | neuroprotection was provided | 40 | 4 | –
CC(O)Cn1cc(CNc2nc(NC3CCNCC3)cc(N3CCOCC3)n2)nn1 (centres unmarked) [Compound 53] | neuroprotection was provided | 47 | 2 | –
COCCCn1cc(CNc2nc(NC3CCNCC3)cc(N3CCOCC3)n2)nn1 [Compound 61] | neuroprotection was provided | 52 | 3 | –
COC(=O)CCCCC(=O)N1CCC(Nc2cc(N3CCOCC3)nc(NCc3cn(CCCOCCC(=O)OC)nn3)n2)CC1 [Compound 73] | neuroprotection was provided | 45 | 3 | –
COCCCn1cc(CNc2nc(NC3CCN(CCC(=O)OC)CC3)cc(N3CCOCC3)n2)nn1 [Compound 62] | neuroprotection was provided | 50 | 3 | –
O=P(O)(O)CCN1CCC(Nc2cc(N3CCCCC3)nc(NCc3cn(CCCO)nn3)n2)CC1 [Compound 135] | neuroprotection was provided | 56 | 6 | –
COC(=O)CCOCCCn1cc(CNc2nc(NC3CCN(Cc4ccc(C#N)cc4)CC3)cc(N3CCOCC3)n2)nn1 [Compound 72] | neuroprotection was provided | 45 | 3 | –
OCCCn1cc(CNc2cc(NC3CCNCC3)nc(NCc3cn(CCCO)nn3)n2)nn1 [Compound 108] | neuroprotection was provided | – | 9 | activity at 1 µM (Primary DRG cells [2]; 24 h): 41%
COC(=O)CCOCCCn1cc(CNc2nc(NC3CCN(CCC(=O)OC)CC3)cc(N3CCOCC3)n2)nn1 [Compound 66] | neuroprotection was provided | 52 | 5 | –
CC(=O)O[C@H]1C(=O)[C@@]2(C)[C@H]([C@H](OC(=O)c3ccccc3)[C@]3(O)C[C@H](OC(=O)[C@H](O)[C@@H](NC(=O)c4ccccc4)c4ccccc4)C(C)=C1C3(C)C)[C@]1(OC(C)=O)CO[C@@H]1C[C@@H]2O [paclitaxel, reference compound] | – | – | – | neurotoxicity to DRG neurite outgrowth (Primary DRG cells [2]; 0.05 µM paclitaxel 24 h): inhibiting neurite outgrowth; inhibition of DRG neurite outgrowth (Primary DRG cells [2]; 0.05 µM paclitaxel, across experiments of Table 1): 50%-69
CC(C)NCCCn1cc(CNc2nc(NC3CCNCC3)cc(N3CCOCC3)n2)nn1 [Compound 18] | neuroprotection was provided | 50 | 3 | –
O=P(O)(O)CCN1CCC(Nc2cc(N3CCOCC3)nc(NCc3cn(CCO)nn3)n2)CC1 [Compound 114] | neuroprotection was provided | 55 | 8 | –
O=P(O)(O)CCN1CCC(Nc2cc(N3CCSCC3)nc(NCc3cn(CCCO)nn3)n2)CC1 [Compound 140] | neuroprotection was provided | 54 | 4 | –
CCn1nnc(CNc2nc(NC3CCN(CCC(=O)OC)CC3)cc(N3CCOCC3)n2)n1 [Compound 100] | neuroprotection was provided | 52 | 3 | –
